In patent publication US20260098008A1, “COVALENT, CHEMOGENETIC ACTIVATORS FOR K2P POTASSIUM CHANNELS AND USES THEREOF” (THE REGENTS OF THE UNIVERSITY OF CALIFORNIA, priority 2022, published 2026):
Positions count from the first letter of the chain named.

What was measured:
Format in all cases: cell-based
[1] = target: T1, WT-CG* tandem K2P2.1 (TREK-1) (Mus musculus, UniProt P97438, S146C); assay: TEVC in Xenopus oocytes, tandem channels; conditions: 20 μM; for Fold-activation (I activator/I control): sequential application, Xenopus oocytes
T1 construct: expressed in transfected cells; host or cells: Xenopus laevis oocytes injected with mRNA
T1 sequence (P97438 1-411 isoform P97438-2): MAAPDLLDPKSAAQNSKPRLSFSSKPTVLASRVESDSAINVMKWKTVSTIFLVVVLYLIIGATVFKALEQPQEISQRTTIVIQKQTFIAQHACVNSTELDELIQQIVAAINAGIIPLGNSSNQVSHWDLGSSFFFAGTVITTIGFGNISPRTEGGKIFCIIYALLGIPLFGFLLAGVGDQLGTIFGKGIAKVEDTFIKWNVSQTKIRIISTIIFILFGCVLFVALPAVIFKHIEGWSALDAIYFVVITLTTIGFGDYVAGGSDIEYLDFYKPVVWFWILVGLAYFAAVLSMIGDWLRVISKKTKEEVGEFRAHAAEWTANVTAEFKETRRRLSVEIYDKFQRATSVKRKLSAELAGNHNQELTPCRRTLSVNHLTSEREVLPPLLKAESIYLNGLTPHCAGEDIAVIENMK
T1 sequence (P97438 1-411 isoform P97438-2 S131C): T1 sequence (P97438 1-411 isoform P97438-2) with S131C
From the text: (§1) Mouse K2P2.1 (TREK-1) (Genbank accession number: NP_034737.2), mouse K2P10.1 (TREK-2) (NM_001316665.1), mouse K2P4.1 (TRAAK) (NM_008431.3), human K2P4.1 (TRAAK) (NM_033310.2) and mouse K2P18.1(TRESK) (NM_207261.3) were used for this study. Point mutations were introduced by site-directed mutagenesis using custom primers and confirmed by sequencing before use. For studies using Xenopus oocytes, K2P channels were subcloned into a previously reported pGEMHE/pMO vector (46). For expression in HEK293 cells, mouse K2P2.1 (TREK-1) and mutants were expressed from a previously described pIRES2-EGFP vector in HEK293 cells (46,47). K2P2.1 (TREK-1) tandems were constructed by connecting the open reading frames for the individual subunits with a linker encoding the […] (SEQ ID NO: 19) sequence. Tandems used for HEK293 cells included an N-terminal HA tag ([…] (SEQ ID NO: 20)) on the first subunit.
(§2) Xenopus laevis oocytes were harvested according to UCSF IACUC Protocol AN129690 and digested using collagenase (Worthington Biochemical Corporation, #LS004183, 0.8-1.0 mg/mL) in Ca^21-free ND96 (96 mM NaCl, 2 mM KCl, 3.8 mM MgCl2, 5 mM HEPES pH 7.4) immediately post-harvest, as previously reported (31,33). Oocytes were maintained at 18° C. in ND96 (96 mM NaCl, 2 mM KCl, 1.8 mM CaCl2, 2 mM MgCl2, 5 mM HEPES pH 7.4) supplemented with antibiotics (100 units mL^−1 penicillin, 100 μg mL^−1 streptomycin, 50 μg mL^−1 gentimycin) and used for experiments within one week of harvest.
(§3) Defolliculated stage V-VI oocytes were microinjected with 0.5-36 ng mRNA and currents were recorded within 16-48 h hours of injection.
(§4) For recordings, oocytes were impaled with borosilicate recording microelectrodes (0.4-2.0 MΩ resistance) backfilled with 3 M KCl and were subjected to constant perfusion of ND96 at a rate of 3 ml min^−1. Recording solutions containing K2P activators were prepared immediately prior to use from DMSO stocks (20-100 mM), with final DMSO concentrations of 0.1%. Currents were evoked from a −80 mV holding potential followed by a 300 ms ramp from −150 mV to +50 mV. Data were recorded using a GeneClamp 500B amplifier (MDS Analytical Technologies) controlled by pCLAMP8 software (Molecular Devices), and digitized at 1 kHz using Digidata 1332 Å digitizer (MDS Analytical Technologies). For each recording, control solution (ND96) was perfused over a single oocyte until current was stable before switching to solutions containing the test compounds at various concentrations. Representative traces and dose response plots were generated in GraphPad Prism 9.

[2] = target: T2, CG*-WT tandem K2P2.1 (TREK-1) (Mus musculus, UniProt P97438, S146C); assay: TEVC in Xenopus oocytes, tandem channels; conditions: 20 μM; for Fold-activation (I activator/I control): sequential application, Xenopus oocytes
T2 construct: expressed in transfected cells; host or cells: Xenopus laevis oocytes injected with mRNA
T2 sequence (P97438 1-411 isoform P97438-2 S131C): T1 sequence (P97438 1-411 isoform P97438-2) with S131C
T2 sequence (P97438 1-411 isoform P97438-2): T1 sequence (P97438 1-411 isoform P97438-2)
From the text: as §1, §2, §3, §4

[3] = target: T3, CG*-CG* tandem K2P2.1 (TREK-1) (Mus musculus, UniProt P97438, S146C); assay: TEVC in Xenopus oocytes, tandem channels; conditions: 20 μM, sequential application
T3 construct: expressed in transfected cells; host or cells: Xenopus laevis oocytes injected with mRNA
T3 sequence (P97438 1-411 isoform P97438-2 S131C) 1: T1 sequence (P97438 1-411 isoform P97438-2) with S131C
T3 sequence (P97438 1-411 isoform P97438-2 S131C) 2: T1 sequence (P97438 1-411 isoform P97438-2) with S131C
From the text: as §1, §2, §3, §4

[4] = target: T4, WT-WT tandem K2P2.1 (TREK-1) (Mus musculus, UniProt P97438); assay: TEVC in Xenopus oocytes, tandem channels; conditions: 20 μM, sequential application
T4 construct: expressed in transfected cells; host or cells: Xenopus laevis oocytes injected with mRNA
T4 sequence (P97438 1-411 isoform P97438-2) 1: T1 sequence (P97438 1-411 isoform P97438-2)
T4 sequence (P97438 1-411 isoform P97438-2) 2: T1 sequence (P97438 1-411 isoform P97438-2)
From the text: as §1, §2, §3, §4

K2P2.1 (TREK-1) = target: T5, K2P2.1 (TREK-1) (Mus musculus, UniProt P97438); assay: Two-electrode voltage clamp (TEVC) in Xenopus oocytes; conditions: for Fold-activation (I activator/I control): currents at 0 mV
T5 construct: expressed in transfected cells; host or cells: Xenopus laevis oocytes injected with mRNA (pGEMHE/pMO vector)
T5 sequence (P97438 1-411 isoform P97438-2): T1 sequence (P97438 1-411 isoform P97438-2)
From the text: as §1, §2, §3, §4

O=C(NCc1ccc(Cl)cc1Cl)c1ccc(N2C(=O)C=CC2=O)cc1 [CAT335]
Fold-activation relative to activation of the CG*-CG* homodimer [1]: 60-80%
Fold-activation (I activator/I control) [1]: 11.5 ± 1.1 fold
Fold-activation relative to activation of the CG*-CG* homodimer [2]: 60-80%
Fold-activation (I activator/I control) [2]: 8.9 ± 1.1 fold
Fold-activation (I activator/I control) [3]: 14.7 ± 0.9 fold
Fold-activation (I activator/I control) [4]: 1.37 ± 0.07 fold
Fold-activation after compound washout (K2P2.1 (TREK-1); 20 μM, after washout, Xenopus oocytes): 4.0 ± 0.6 fold
Fold-activation (I activator/I control) (K2P2.1 (TREK-1); 20 μM, Xenopus oocytes): 2.0±0.2 fold

CS(=O)(=O)Nc1ccc(C(=O)NCc2ccc(Cl)cc2Cl)cc1 [ML335, reference compound]
Fold-activation (I activator/I control) [1]: 5.6 ± 0.4 fold
Fold-activation (I activator/I control) [2]: 5.0±0.5 fold
Fold-activation (I activator/I control) [3]: 4.5±0.3 fold
Fold-activation (I activator/I control) [4]: 6.8 ± 0.5 fold
Reversibility of activation on washout (K2P2.1 (TREK-1); 20 μM, Xenopus oocytes): immediate reversal
Fold-activation (I activator/I control) (K2P2.1 (TREK-1); 20 μM, Xenopus oocytes): 6.5 fold
Emax (IML335/Icontrol) (K2P2.1 (TREK-1); TEVC at 0 mV): 15.8±1.3 fold activation
EC50 (K2P2.1 (TREK-1); TEVC at 0 mV, normalized to initial currents): 24 ± 4 µM
